Laboratory results: PubChem BioAssay AID1963966 (Molecular Pharmacology Branch, DTP, NCI, 2024)
pIC50: −log10 of the molar value.

Tested on: 935938-334-R-J1-PDC spheroids with HUVEC/MSC, viability
Experiment: Anticancer human tumor 935938-334-R-J1-PDC patient-derived small intestine adenocarcinoma cell line growth inhibition [PI3K]
Settings: for pIC50: curve of first compound; for viability, T/C: stronger effect = lower value; active = viability on the fitted dose curve at most 10% of control; inactive = the rest
How it was run: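 Targeted small molecules plus PI3K inhibitors, half-log dose series from Cmax (default top 10 microM), were applied to heterotypic spheroids of cancer cells with HUVEC and MSCs. Viability indicated growth inhibition.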
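Note: compound exposure lasted seven days before viability was read.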
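Throughout, for viability, T/C: percent of vehicle DMSO treated spheroid viability so 100% = untreated.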

CNC(=O)c1ccc(N2C(=S)N(c3ccc(C#N)c(C(F)(F)F)c3)C(=O)C2(C)C)cc1F + Cc1nc(NC(=O)N2CCCC2C(N)=O)sc1-c1ccnc(C(C)(C)C(F)(F)F)c1
6.79: pIC50 (second compound 10 µM)
< 5.00: pIC50 (second compound 0.0316 µM) | pIC50 (second compound 0.1 µM) | pIC50 (second compound 0.316 µM) | pIC50 (second compound 1 µM)
inactive: viability, T/C (second compound 0.0316 µM, first compound 0.0316 µM) 111% | viability, T/C (second compound 0.0316 µM, first compound 0.1 µM) 84.3% | viability, T/C (second compound 0.0316 µM, first compound 0.316 µM) 84.9% | viability, T/C (second compound 0.0316 µM, first compound 1 µM) 91.9% | viability, T/C (second compound 0.0316 µM, first compound 3.16 µM) 100% | viability, T/C (second compound 0.0316 µM, first compound 10 µM) 88% | viability, T/C (second compound 0.1 µM, first compound 0.0316 µM) 81.7% | viability, T/C (second compound 0.1 µM, first compound 0.1 µM) 88.7% | viability, T/C (second compound 0.1 µM, first compound 0.316 µM) 65.5% | viability, T/C (second compound 0.1 µM, first compound 1 µM) 84.4% | viability, T/C (second compound 0.1 µM, first compound 3.16 µM) 76.8% | viability, T/C (second compound 0.1 µM, first compound 10 µM) 62.9% | viability, T/C (second compound 0.316 µM, first compound 0.0316 µM) 103% | viability, T/C (second compound 0.316 µM, first compound 0.1 µM) 59.7% | viability, T/C (second compound 0.316 µM, first compound 0.316 µM) 81.9% | viability, T/C (second compound 0.316 µM, first compound 1 µM) 69.6% | viability, T/C (second compound 0.316 µM, first compound 3.16 µM) 77% | viability, T/C (second compound 0.316 µM, first compound 10 µM) 56.7% | viability, T/C (second compound 1 µM, first compound 0.0316 µM) 75.2% | viability, T/C (second compound 1 µM, first compound 0.1 µM) 76.8% | viability, T/C (second compound 1 µM, first compound 0.316 µM) 70.2% | viability, T/C (second compound 1 µM, first compound 1 µM) 101% | viability, T/C (second compound 1 µM, first compound 3.16 µM) 56.2% | viability, T/C (second compound 1 µM, first compound 10 µM) 70.7% | viability, T/C (second compound 3.16 µM, first compound 0.0316 µM) 39.6% | viability, T/C (second compound 3.16 µM, first compound 0.1 µM) 43.9% | viability, T/C (second compound 3.16 µM, first compound 0.316 µM) 51% | viability, T/C (second compound 3.16 µM, first compound 1 µM) 51.5% | viability, T/C (second compound 3.16 µM, first compound 3.16 µM) 47% | viability, T/C (second compound 3.16 µM, first compound 10 µM) 47.3% | viability, T/C (second compound 10 µM, first compound 0.0316 µM) 45.6% | viability, T/C (second compound 10 µM, first compound 0.1 µM) 59.7% | viability, T/C (second compound 10 µM, first compound 0.316 µM) 46.2% | viability, T/C (second compound 10 µM, first compound 1 µM) 39.3% | viability, T/C (second compound 10 µM, first compound 3.16 µM) 38.5% | viability, T/C (second compound 10 µM, first compound 10 µM) 34.3%
> 7.50: pIC50 (second compound 3.16 µM)

Cn1cnc2c(F)c(Nc3ccc(Br)cc3Cl)c(C(=O)NOCCO)cc21 + Cc1nc(NC(=O)N2CCCC2C(N)=O)sc1-c1ccnc(C(C)(C)C(F)(F)F)c1
7.94: pIC50 (second compound 1 µM)
7.43: pIC50 (second compound 0.0316 µM)
7.53: pIC50 (second compound 0.1 µM)
> 8.02: pIC50 (second compound 3.16 µM) | pIC50 (second compound 10 µM)
inactive: viability, T/C (second compound 0.0316 µM, first compound 0.00949 µM) 62% | viability, T/C (second compound 0.0316 µM, first compound 0.03 µM) 54.8% | viability, T/C (second compound 0.0316 µM, first compound 0.0949 µM) 32.8% | viability, T/C (second compound 0.0316 µM, first compound 0.3 µM) 31.1% | viability, T/C (second compound 0.0316 µM, first compound 0.949 µM) 20.4% | viability, T/C (second compound 0.0316 µM, first compound 3 µM) 22.9% | viability, T/C (second compound 0.1 µM, first compound 0.00949 µM) 73.7% | viability, T/C (second compound 0.1 µM, first compound 0.03 µM) 44.7% | viability, T/C (second compound 0.1 µM, first compound 0.0949 µM) 41.4% | viability, T/C (second compound 0.1 µM, first compound 0.3 µM) 25.8% | viability, T/C (second compound 0.1 µM, first compound 0.949 µM) 23.6% | viability, T/C (second compound 0.1 µM, first compound 3 µM) 17.2% | viability, T/C (second compound 0.316 µM, first compound 0.00949 µM) 62.9% | viability, T/C (second compound 0.316 µM, first compound 0.03 µM) 48.5% | viability, T/C (second compound 0.316 µM, first compound 0.0949 µM) 36.9% | viability, T/C (second compound 0.316 µM, first compound 0.3 µM) 23% | viability, T/C (second compound 0.316 µM, first compound 0.949 µM) 18.6% | viability, T/C (second compound 0.316 µM, first compound 3 µM) 17.3% | viability, T/C (second compound 1 µM, first compound 0.00949 µM) 52.9% | viability, T/C (second compound 1 µM, first compound 0.03 µM) 37% | viability, T/C (second compound 1 µM, first compound 0.0949 µM) 26.4% | viability, T/C (second compound 1 µM, first compound 0.3 µM) 19.4% | viability, T/C (second compound 1 µM, first compound 0.949 µM) 14.2% | viability, T/C (second compound 1 µM, first compound 3 µM) 12.6% | viability, T/C (second compound 3.16 µM, first compound 0.00949 µM) 30.8% | viability, T/C (second compound 3.16 µM, first compound 0.03 µM) 39.6% | viability, T/C (second compound 3.16 µM, first compound 0.0949 µM) 19.6% | viability, T/C (second compound 3.16 µM, first compound 0.3 µM) 17.2% | viability, T/C (second compound 3.16 µM, first compound 0.949 µM) 18.5% | viability, T/C (second compound 3.16 µM, first compound 3 µM) 11.1% | viability, T/C (second compound 10 µM, first compound 0.00949 µM) 28.7% | viability, T/C (second compound 10 µM, first compound 0.03 µM) 20.5% | viability, T/C (second compound 10 µM, first compound 0.0949 µM) 17.2% | viability, T/C (second compound 10 µM, first compound 0.3 µM) 14.8% | viability, T/C (second compound 10 µM, first compound 0.949 µM) 14.8% | viability, T/C (second compound 10 µM, first compound 3 µM) 12.1%
7.54: pIC50 (second compound 0.316 µM)
